Assay results reported in US20220168392A1 (priority 2019, published 2022).
Square brackets hold non-standard residues; d marks the D form. * marks the point of attachment. 2Nal = N[C@@H](Cc1ccc2ccccc2c1)C(=O)O; Propionyl = CCC(=O)*; Sar = CNCC(=O)O

Key:
[1] = test system: mouse bone marrow cells; experiment: Hematopoietic progenitor clonogenic (CFU) assay of bone marrow after 7 Gy TBI; type: in vivo
Experimental: Hematopoietic Progenitor Clonogenic Assay: Clonogenicity of mouse bone marrow cells was quantified in standard semisolid cultures using 1 mL of Methocult GF+ system for mouse cells (Stem Cell Technologies Inc., Vancouver, BC) according to the manufacturer's instructions. Briefly, colony forming units (CFU) were assayed on days 0 (2 h post-TBI), 1, 3, 7, 15, and 30 after 7 Gy exposure or unirradiated mice. Cells from three femurs from different animals were pooled, washed twice with IMDM and seeded at 1 to 5×10^4 cells per 35 mm cell culture dishes (BD Biosciences, San Jose, Calif.). Each sample was plated in duplicate to be scored 14 days after plating. Granulocyte-macrophage colony forming units (CFU-GM), granulocyte-erythrocyte-monocyte-[…] CFU (CFU-GEMM), colony-forming unit-erythroid (CFU-E) and erythroid burst-forming units (BFU-E) were identified and quantified following the manufacturer's instructions. Colonies were counted 14 days after plating using a Nikon TS100F microscope. Fifty or more cells were considered one colony. Data were expressed as mean f standard error of mean (SEM). Statistical significance was determined between irradiated vehicle treated and RWJ-800088-treated groups.

[2] = test system: CD2F1 mice exposed to TBI (7 Gy); experiment: Circulating biomarkers (EPO, FLT3 ligand, MMP9, VCAM1, E-Selectin, sP-Selectin) after 7 Gy TBI; type: in vivo, mouse
Experimental: Harvesting blood and tissues for various molecular assays: RWJ-800088 (0.3 mg/kg) or saline (n=6 per group) was administered SC 24 hour prior to irradiation. The experimental animals received either 0 or 7 Gy radiation (non-lethal dose) in the AFRRI Co-60 gamma radiation facility. […] The femurs and sterna were then collected and processed as described below.

[3] = test system: CD2F1 male mice exposed to supra-lethal TBI; experiment: Survival and recovery from gastrointestinal injury at supra-lethal TBI; type: in vivo, mouse
Experimental: Data are expressed as mean±Standard error of mean (SEM). Irradiated TPOm group compared with saline treated group, statistical significance by Student T test (p≤0.0001)
Bacterial translocation was determined as bacterial load in liver and spleen tissue as a result of radiation injury to the intestines and was quantified by real-time polymerase chain reaction (PCR) using the 16S rRNA gene consensus sequence. Naïve jejunum serves as a positive control and naïve spleen and liver serve as negative controls/baseline values. Data are expressed as mean±Standard error of mean (SEM). Irradiated TPOm group compared with saline treated group, statistical significance by Student T test (p≤0.0001).
Data are expressed as mean±Standard error of mean (SEM). Irradiated TPOm group compared with saline treated group, statistical significance by Student T test (p≤0.0001). Serum amaloyd A (SAA) and pro-calcitonin (PCT), sepsis markers, were both measured by ELISA.
Jejunum samples were collected at days 1, 3, 7, 9 post-TBI. Representative sections were stained with H&E. There was a 100% increased survival in the RWJ-800088 treated mice compared to the saline treated animals (FIG. 9A—Kaplan Meier plot).

[4] = test system: dogs after whole body radiation at an LD50 exposure; experiment: Dog pilot whole body irradiation study; type: in vivo; conditions: single 10 mg/kg dose 24 hours after whole body radiation at LD50
Experimental: A pilot radio-mitigation study was conducted in dogs with RWJ-800088.

[5] = test system: rhesus monkeys after TBI gamma radiation (600 cGY); experiment: Rhesus monkey whole body irradiation pilot PK/PD study; type: in vivo
Experimental: A pilot PK/PD study was performed to evaluate the efficacy of RWJ-800088 in rhesus monkeys (Study No. 2016-2693—CiToxLAB North America). Rhesus monkeys (n=10/group, 5 male/5 female) were treated with vehicle or RWJ-800088 (a single dose of 30 mg/kg RWJ-800088) administered 24 hours post TBI gamma radiation (600 cGY). […] The ratio of the maximum platelet count to baseline following escalating doses of RWJ-800088 to healthy rhesus monkeys is as follows: 0.97±0.06× at 0.5 mg/kg, 1.08±0.15× at 2 mg/kg, 1.98±0.16× at 10 mg/kg, 2.9±0.03× at 20 mg/kg, and 3.83±0.11× at 40 mg/kg).

[6] = test system: Mice, ear vein; experiment: Ear vein model in mice (Table 6); type: in vivo, mouse; conditions: 0.3 mg/kg, whole wrapped cell: Reduced white cell adhesion to endothelium and vascular permeability
[7] = test system: mice surviving TBI; experiment: Long-term blood cells, bone marrow and kidney staining in TBI survivors (Example 5); type: in vivo, mouse
Experimental: Methods: During the above Experiment 4, four studies were performed as follows:
Study A: A subset of the animals were sacrificed at 1, 6, and 12 months. Blood was collected and blood cells counted, and femurs were collected, bone marrow isolated and cultured to analyze for colony forming units;
Study B: A subset of the animals were sacrificed at 1 and 6 months. Sterna were collected from these animals, fixed, sectioned, stained with H&E (Hematoxylin and eosin), and megakaryocytes counted;
Study C: A subset of the animals were sacrificed at 1 and 6 months. Kidneys were collected from these animals, fixed, sectioned, stained with β-Catenin or E-cadherin: and
Study D: A subset of the animals were sacrificed at 1 and 6 months. Kidneys were collected from these animals, fixed, sectioned, stained with β-galactosidase, a marker of senescence.

[8] = test system: Rats, prostate irradiation; experiment: Prostate irradiation in rats (Table 6); type: in vivo, rat; conditions: 3 mg/kg, whole wrapped cell: Protection of vascular size and function
[9] = 1 and 6 months post TBI (FIG. 25)

With “methoxypolyethyleneglycol20000-propionyl-L-Isoleucyl-L-Glutamyl-Glycyl-L-Prolyl-L-Threonyl-L-Leucyl-L-Arginyl-L-Glutaminyl-L-2-Naphthylalanyl-L-Leucyl-L-Alanyl-L-Alanyl-L-Arginyl-Sarcosyl-Ne-(methoxypolyethyleneglycol20000-propionyl-L-Isoleucyl-L-Glutamyl-Glycyl-L-Prolyl-L-Threonyl-L-Leucyl-L-Arginyl-L-Glutaminyl-L-2-Naphthylalanyl-L-Leucyl-L-Alanyl-L-Alanyl-L-Arginyl-Sarcosyl-)-Lysinamide ({mPEG 20 kDa-Propionyl}-IEGPTLRQ[2Nal]LAAR[Sar]K-NH2; also: dimer: second identical mPEG-propionyl chain on Lys Nε of C-terminal lysinamide) [RWJ-800088]” the “total number of colonies in the vehicle-treated group compared to the RWJ-800088 treated group” value ([1]; day 15 post-TBI 7 Gy, 24 h pre-TBI administration) was “significantly lower”, the “GM, GEMM, BFU-E and CFU-E, vehicle-treated vs RWJ-800088 treated groups” value ([1]; day 30 post-TBI 7 Gy) was “significantly lower (p<0.0001)” and the “circulating levels of erythropoietin (EPO) vs vehicle treated irradiated mice” value ([2]; 7 Gy, 0.3 mg/kg 24 h pre-TBI (FIG. 5A)) was “significantly (p<0.0001) lower”. The “circulating levels of FLT3 ligand vs vehicle treated irradiated mice” value ([2]; 7 Gy, 0.3 mg/kg 24 h pre-TBI (FIG. 5B)) was “significantly (p<0.0001) lower”, the “circulating levels of sP-Selectin vs vehicle” value ([2]; days 2, 3, 7, and 15 post-irradiation) was “statistically significant increases (p<0.0001)” and the “circulating levels of E-Selectin vs vehicle” value ([2]; days 3, 7 15 and 30 post-irradiation) was “statistically significant increases (p<0.0001)”. The “circulating levels of MMP-9 vs vehicle” value ([2]; days 7 and 15 post-irradiation) was “statistically significant increases (p<0.0001)”, the “circulating levels of VCAM-1 vs vehicle” value ([2]; days 15 and 30 post-irradiation) was “statistically significant increases (p<0.0001)” and the “bacterial translocation to the liver and spleen” value ([3]; 1 mg/kg 24 hours prior to TBI (12.5 Gy per FIG. 10 legend)) was “significantly reduced”. The “number of viable crypts in jejunum” value ([3]; 11 Gy, 1 mg/kg 24 h prior to TBI (FIG. 9C)) was “significant increase”, the “increased survival compared to saline treated animals” value ([3]; 11 Gy, 1 mg/kg 24 h prior to TBI, 8 mice/group/time point (FIG. 9A)) was 100% and the “circulating sepsis biomarkers, serum amyloid A and procalcitonin” value ([3]; nine days post-TBI 11 Gy, 1 mg/kg 24 hours prior to TBI) was “significant reduction”. The Blood transfusions [4] was 1.25/ /animal, the “Days of febrile neutropenia” value [4] was 1.08 and the Diarrhea [4] was 2/12. For the same substance, the “Mean survival time” value [4] was 36 days, the “Mild to moderate necrohemorrhagic bronchioalveolar or minimal subacute bronchioalveolar inflammation” value [4] was 6/12 and the “Mild to severe hematopoietic bone marrow hypocellularity” value [4] was 6/12. The Mortality [4] was 7/12, the Neutropenia nadir [4] was 9e+07 L⁻¹ and the Severe neutropenia duration [4] was 5.4. For the same substance, the Effects ([5]; Rhesus, whole body irradiation, 30 mg/kg, whole wrapped cell: Enhanced survival, mitigation of thrombocytopenia, anemia) was “Enhanced survival,”, the “decrease in RBC, reticulocytes and WBC vs irradiated vehicle” value ([5]; irradiated animals, 30 mg/kg 24 hours post-TBI (FIG. 18B-D)) was “less severe decrease” and the “platelet counts, nadir and recovery” value ([5]; sham or irradiated animals, 30 mg/kg 24 hours post-TBI (FIG. 18A)) was “beneficial effects on platelet counts”. For the same substance, the “survival (animals surviving)” value ([5]; single dose 30 mg/kg 24 hours post TBI 600 cGY, n=10/group (FIG. 17)) was 9/10, the Effects [6] was “Reduced white cell” and the “E-cadherin expression in kidney vs vehicle” value [7, 9] was “higher”. For the same substance, the “β-Catenin expression in kidney” value [7, 9] was “decreases β-Catenin expression”, the “β-galactosidase staining in kidney (marker of senescence)” value ([7]; 1 and 6 months post TBI (FIG. 26, 27)) was “protects from cellular senescence” and the “megakaryocytes in sterna vs vehicle (saline)” value ([7]; 1 and 6 months post irradiation) was “significantly higher numbers of megakaryocytes”. For the same substance, the “blood cell types (white blood cells, lymphocytes, neutrophils, platelets, red blood cells) vs vehicle” value ([7]; 6 months and 12 months post TBI) was “increased in number”, the “colony forming units in isolated bone marrow vs vehicle” value ([7]; 6 months post TBI (FIG. 23)) was “more colony forming units” and the Effects [8] was “Protection of vascular size”.
